From patent publication US5830863A, “Neurokinin A antagonists” (priority 1996, dated 1998)
Like-named read-outs stand apart in the source and are kept apart here. Residues, ends and D or L forms follow the SMILES beside them.

Legend:
[1] = molecular target: T1, NK-1 (substance P receptor) (Rattus norvegicus, UniProt P14600); experiment: NK-1 substance P receptor preparation from rat salivary gland, binding
T1 construct: substance P receptor preparation from rat salivary gland; from tissue; host or cells: rat salivary gland
Description: (§1) Values given indicate the concentration in nanomoles of antagonist to reach the IC50 of the neurokinin A (NKA) receptor. SKLKB82#3 represents a cloned NK-2 receptor cell line; the sample is prepared from the scraped cell pellet for assay as earlier described for the hamster urinary bladder preparations. NK-1 represents a substance P receptor preparation from rat salivary gland; receptors are prepared as earlier described for the hamster urinary bladder preparations.

[2] = molecular target: T2, neurokinin A (NKA) receptor (NK-2) (Mesocricetus auratus, UniProt P51144); experiment: displacement of I125 labeled NKA from hamster urinary bladder membranes; format: binding
T2 construct: displace I125 labeled NKA from hamster urinary bladder; from tissue; host or cells: hamster urinary bladder (membranes in A1, chopped tissue in A4)
T2 sequence (P51144 1-384): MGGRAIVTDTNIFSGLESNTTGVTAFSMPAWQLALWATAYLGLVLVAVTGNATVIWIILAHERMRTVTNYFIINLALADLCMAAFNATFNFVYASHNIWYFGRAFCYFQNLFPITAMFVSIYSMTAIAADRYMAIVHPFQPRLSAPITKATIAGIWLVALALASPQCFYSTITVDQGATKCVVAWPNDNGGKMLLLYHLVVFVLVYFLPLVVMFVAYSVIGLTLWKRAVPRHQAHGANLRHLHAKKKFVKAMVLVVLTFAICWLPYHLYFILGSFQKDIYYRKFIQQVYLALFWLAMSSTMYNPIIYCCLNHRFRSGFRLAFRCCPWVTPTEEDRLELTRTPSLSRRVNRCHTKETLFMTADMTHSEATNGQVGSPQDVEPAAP
Excerpt: The abscissa (x-axis) logarithmically indicates the concentration in nanomoles of agonist of antagonist of the neurokinin A (NKA) receptor. The ordinate (Y-axis) indicates the observed specific binding for each tested agonist or antagonist measured as a percentage of maximum specific binding.
Agonists tested were NKA and fragments of NKA consisting of the third to tenth (NKA(3-10)) amino acids and the fourth to tenth (NKA(4-10)) amino acids. Values are MEAN±S.E.M. of 6-12 experiments. IC50 values estimated graphically from 50% inhibition point.
Urinary bladders from several hamsters were pooled, minced, and homogenized in 50 mM TRIS-HCl (pH 7.4) containing 120 mM NaCl and 5 mM KCl at 4° C. and centrifuged at 48,000×g for 15 minutes. The pellet was resuspended for 30 minutes in 50 mM TRIS-HCl (pH 7.4) containing 10 mM EDTA and 300 mM KCl at 4° C. The suspension was centrifuged as above and the pellet was washed two times in plain 50 mM TRIS-HCl (pH 7.4) and centrifuged similarly. The tissue was then resuspended in incubation buffer and an aliquot (approximately 3-5 mg tissue) was added to each assay tube to commence the assay. The assay tubes contained incubation buffer consisting of 50 mM TRIS-HCl (pH 7.4), 0.02% BSA, 40 μg/ml bacitracin, 4 μg/ml chymostatin, 4 μg/ml leupeptin, 2 mM MnCl2, 0.1 nM ^125 iodohistidyl^1 -neurokinin A (Amersham Corp.), and concentrations of the title compounds or standards ranging from 0.03 nM to 100 μM. The assay was allowed to proceed to equilibrium for 120 min at room temperature. After this time, the contents of each tube was rapidly filtered over Whatman GF/B filters presoaked in 0.5% BSA and the filters were rapidly washed two times with ice-cold plain 50 mM TRIS-HCl (pH 7.4). Filter-bound radioactivity was quantitated in a gamma counter. Specific binding (maximum) was defined as the difference between binding in the presence and absence of 1 μM unlabeled neurokinin A. Competition of iodinated neurokinin A binding by test compounds or standards was expressed as a percentage of this maximum competition.
Values given indicate the concentration in nanomoles of antagonist to reach the IC50 of the neurokinin A (NKA) receptor. SKLKB82#3 represents a cloned NK-2 receptor cell line; the sample is prepared from the scraped cell pellet for assay as earlier described for the hamster urinary bladder preparations. NK-1 represents a substance P receptor preparation from rat salivary gland; receptors are prepared as earlier described for the hamster urinary bladder preparations. Blank spaces indicate compound has not been tested in that particular assay.

[3] = molecular target: T3, cloned NK-2 receptor (SKLKB82#3 cell line) (Bos taurus, UniProt P05363); experiment: I125 NKA binding to SKLKB82#3 cloned NK-2 receptor cell line
T3 construct: expressed in transfected cells; host or cells: SKLKB82#3 cell line (scraped cell pellet)
T3 sequence (P05363 1-384): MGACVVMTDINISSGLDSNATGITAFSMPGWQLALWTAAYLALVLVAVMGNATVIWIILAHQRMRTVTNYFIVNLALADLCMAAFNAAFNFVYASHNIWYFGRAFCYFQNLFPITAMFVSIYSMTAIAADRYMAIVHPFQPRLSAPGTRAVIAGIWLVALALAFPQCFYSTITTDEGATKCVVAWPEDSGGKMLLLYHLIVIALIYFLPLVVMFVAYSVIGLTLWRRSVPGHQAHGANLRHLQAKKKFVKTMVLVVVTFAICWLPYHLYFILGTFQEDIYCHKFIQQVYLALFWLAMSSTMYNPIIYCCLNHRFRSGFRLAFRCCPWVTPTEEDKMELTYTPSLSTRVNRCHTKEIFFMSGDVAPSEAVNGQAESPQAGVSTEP
Description: as §1

[4] = cloned NK-2 receptor cell line, scraped cell pellet, read-out: SKLKB82#3 IC50

T1 sequence (P14600 whole entry): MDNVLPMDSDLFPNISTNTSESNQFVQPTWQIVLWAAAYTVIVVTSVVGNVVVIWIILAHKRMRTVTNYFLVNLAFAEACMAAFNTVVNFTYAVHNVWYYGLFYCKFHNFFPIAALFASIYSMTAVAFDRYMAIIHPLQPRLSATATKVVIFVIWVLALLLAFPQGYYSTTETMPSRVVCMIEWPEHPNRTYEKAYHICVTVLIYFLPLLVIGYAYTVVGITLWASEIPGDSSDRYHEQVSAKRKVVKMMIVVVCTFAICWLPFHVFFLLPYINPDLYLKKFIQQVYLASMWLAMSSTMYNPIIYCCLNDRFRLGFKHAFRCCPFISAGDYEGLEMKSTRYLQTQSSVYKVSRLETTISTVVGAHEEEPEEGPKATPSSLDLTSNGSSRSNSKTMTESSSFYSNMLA

Row | SMILES | IC50 [1] [µM] | IC50 [2] [µM] | IC50 [3, 4] [µM] | IC50 [3] [µM]
1 | CC(C)C[C@H](NC(=O)[C@H](CC(C)C)NC(=O)CNC(=O)[C@H](C(C)C)N(C)C[C@H](Cc1ccccc1)NC(=O)[C@H](CO)NC(=O)[C@@H](N)CC(=O)O)C(N)=O [MDL 29,678, Asp--Ser--Phe[.psi.(CH2 NCH3)]Val--Gly--Leu--Leu--NH2] (HELM PEPTIDE1{D.S.[CC(C)[C@@H](C(=O)[*:2])N(C)C[C@H](Cc1ccccc1)N[*:1]].G.L.L.[am]}$$$$V2.0) | – | > 10 | – | –
2 | CC(C)C[C@H](NC(=O)[C@H](CC(C)C)NC(=O)CN(C)C[C@@H](NC(=O)[C@H](Cc1ccccc1)NC(=O)[C@H](CO)NC(=O)[C@@H](N)CC(=O)O)C(C)C)C(N)=O [MDL 29,712, Asp--Ser--Phe--Val[.psi.(CH2 NCH3)]Gly--Leu--Leu--NH2] (HELM PEPTIDE1{D.S.F.[CC(C)[C@@H](CN(C)CC(=O)[*:2])N[*:1]].L.L.[am]}$$$$V2.0) | – | > 5 | – | –
3 | CCN(C[C@H](CC(C)C)NC(=O)CNC(=O)[C@@H](NC(=O)[C@H](Cc1ccccc1)NC(=O)[C@H](CO)NC(=O)[C@@H](N)CC(=O)O)C(C)C)[C@@H](CC(C)C)C(N)=O [MDL 29,716, Asp-Ser-Phe-Val-Gly-Leu(.PSI.(CH2 NCH2 CH3))Leu-NH2] (HELM PEPTIDE1{D.S.F.V.G.[CCN(C[C@H](CC(C)C)N[*:1])[C@@H](CC(C)C)C(N)=O]}$$$$V2.0) | – | 0.257 ± 0.03 | 4.73 ± 0.393 | –
4 | CC(C)C[C@H](NC(=O)[C@H](CC(C)C)NC(=O)CNC[C@@H](NC(=O)[C@H](Cc1ccccc1)NC(=O)[C@H](CO)NC(=O)[C@@H](N)CC(=O)O)C(C)C)C(N)=O [MDL 29,882, Asp--Ser--Phe--Val[.psi.(CH2 NH)]Gly--Leu--Leu--NH2] | > 100 | > 5 | – | –
5 | CC(C)C[C@@H](CN[C@@H](Cc1ccccc1)C(N)=O)NC(=O)CNC(=O)[C@@H](NC(=O)[C@H](Cc1ccccc1)NC(=O)[C@H](CO)NC(=O)[C@@H](N)CC(=O)O)C(C)C [MDL 101,382, Asp--Ser--Phe--Val--Gly--Leu(.psi.(CH2 NH))Phe--NH2] (HELM PEPTIDE1{D.S.F.V.G.[CC(C)C[C@@H](CN[C@@H](Cc1ccccc1)C(N)=O)N[*:1]]}$$$$V2.0) | – | 0.005 | – | 0.2
6 | CC(C)C[C@H](NC(=O)[C@H](CC(C)C)NC(=O)CNC(=O)[C@@H](NC(=O)[C@H](Cc1ccccc1)NC(=O)[C@H](CO)NCCCC(=O)O)C(C)C)C(N)=O [MDL 101,905, Suc[.psi.(CH2 NH)]Ser--Phe--Val--Gly--Leu--Leu--NH2] (HELM PEPTIDE1{[O=C(O)CCCN[C@@H](CO)C(=O)[*:2]].F.V.G.L.L.[am]}$$$$V2.0) | – | 2 | – | –
7 | CC(C)C[C@H](NC(=O)[C@H](CC(C)C)N(C)CCNC(=O)[C@@H](NC(=O)[C@H](Cc1ccccc1)NC(=O)[C@H](CO)NC(=O)[C@@H](N)CC(=O)O)C(C)C)C(N)=O [MDL 102,369, Asp--Ser--Phe--Val--Gly[.psi.CH2 NCH3)]Leu--Leu--NH2] (HELM PEPTIDE1{D.S.F.V.[CC(C)C[C@@H](C(=O)[*:2])N(C)CCN[*:1]].L.[am]}$$$$V2.0) | – | > 10 | – | –
8 | CC(C)C[C@@H](CO)NC[C@H](CC(C)C)NC(=O)CNC(=O)[C@@H](NC(=O)[C@H](Cc1ccccc1)NC(=O)[C@H](CO)NC(=O)[C@@H](N)CC(=O)O)C(C)C [MDL 102,678, Asp--Ser--Phe--Val--Gly--Leu[.psi.(CH2 NH)]Leu--CH2 OH] (HELM PEPTIDE1{D.S.F.V.G.[CC(C)C[C@@H](CO)NC[C@H](CC(C)C)N[*:1]]}$$$$V2.0) | – | > 10 | > 10 | –

Continued by falling IC50 [2], values first:

Row | IC50 [1] [µM] | IC50 [2] [µM] | IC50 [3, 4] [µM] | SMILES | IC50 [3] [µM]
9 | – | 0.103 ± 0.013 | – | CCCN(C[C@H](CC(C)C)NC(=O)CNC(=O)[C@@H](NC(=O)[C@H](Cc1ccccc1)NC(=O)[C@H](CO)NC(=O)[C@@H](N)CC(=O)O)C(C)C)[C@@H](CC(C)C)C(N)=O [MDL 102,863, Asp-Ser-Phe-Val-Gly-Leu(.PSI.(CH2 N(CH2)2 CH3))Leu-NH2] (HELM PEPTIDE1{D.S.F.V.G.[CCCN(C[C@H](CC(C)C)N[*:1])[C@@H](CC(C)C)C(N)=O]}$$$$V2.0) | –
10 | > 10 | 0.05 ± 0.005 | – | CSCC[C@H](NC[C@H](CC(C)C)NC(=O)CNC(=O)[C@@H](NC(=O)[C@H](Cc1ccccc1)NC(=O)[C@H](CO)NC(=O)[C@@H](N)CC(=O)O)C(C)C)C(N)=O [MDL 29,646, Asp--Ser--Phe--Val--Gly--Leu(.psi.(CH2 NH))Met--NH2] (HELM PEPTIDE1{D.S.F.V.G.[CSCC[C@H](NC[C@H](CC(C)C)N[*:1])C(N)=O]}$$$$V2.0) | –
11 | – | 0.019 ± 0.003 | – | CC(C)C[C@@H](CN[C@@H](CC(C)C)C(N)=O)NC(=O)CCNC(=O)[C@@H](NC(=O)[C@H](Cc1ccccc1)NC(=O)[C@H](CO)NC(=O)[C@@H](N)CC(=O)O)C(C)C [MDL 102,500, Asp-Ser-Phe-Val-β-Ala-Leu(.PSI.(CH2 NH))Leu-NH2] (HELM PEPTIDE1{D.S.F.V.[bAla].[CC(C)C[C@@H](CN[C@@H](CC(C)C)C(N)=O)N[*:1]]}$$$$V2.0) | –
